{"source": "patent US20250179032A1", "about": "“HETEROCYCLIC INHIBITORS OF GLUT9 FOR TREATMENT OF DISEASE” (HORIZON THERAPEUTICS IRELAND DAC, priority 2022, published 2025)"}
{"target": "T1, H. sapiens SLC2A9 variant 2 (GLUT9B) (Homo sapiens, UniProt Q9NRM0)", "T1 sequence (Q9NRM0 1-511 isoform Q9NRM0-2)": "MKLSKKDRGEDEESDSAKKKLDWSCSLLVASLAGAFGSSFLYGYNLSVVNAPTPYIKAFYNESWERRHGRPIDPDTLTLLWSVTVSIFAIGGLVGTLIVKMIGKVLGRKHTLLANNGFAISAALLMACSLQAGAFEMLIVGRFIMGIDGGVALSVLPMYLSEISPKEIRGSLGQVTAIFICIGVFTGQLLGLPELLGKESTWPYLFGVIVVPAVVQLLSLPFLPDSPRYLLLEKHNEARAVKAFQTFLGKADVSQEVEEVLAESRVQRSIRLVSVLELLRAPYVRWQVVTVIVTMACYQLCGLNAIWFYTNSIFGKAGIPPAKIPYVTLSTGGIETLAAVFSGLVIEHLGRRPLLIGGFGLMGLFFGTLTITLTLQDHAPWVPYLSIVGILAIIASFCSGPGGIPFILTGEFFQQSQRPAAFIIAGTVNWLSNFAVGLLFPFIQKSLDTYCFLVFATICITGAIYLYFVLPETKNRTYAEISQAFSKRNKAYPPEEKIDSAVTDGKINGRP", "assay": "GLUT9 functional assay: uric acid uptake in HEK293T cells, allantoin formation by MS/MS as proxy of GLUT9B inhibition", "type": "cell-based", "settings": "15 minute assay; HEK293T cells stably expressing GLUT9B and transiently A. oryzae uricase; uric acid 0.3 mM, 37° C.; read-out: 15 min IC50", "how_it_was_run": "(§1)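 Inhibition of GLUT9B-mediated urate uptake read as reduced allantoin formation, measured by MS/MS against allantoin standards in HEK293T matrix with log-logistic fitting. Stable GLUT9B HEK293T cells carrying transfected A. oryzae uricase were incubated 15 or 60 min at 37° C with uric acid at Km (0.3 mM), pH 7.4 gluconate buffer.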", "units": {"IC50": "nM"}}
{"compound": "O=C(O)C1CCN(c2nc(CCC3CC3)cnc2-c2cc(F)c3occc3c2)CC1", "note": "[Compound 73, 1-(6-(2-cyclopropylethyl)-3-(7-fluorobenzofuran-5-yl)pyrazin-2-yl)piperidine-4-carboxylic acid]", "IC50": "< 500"}
{"compound": "COCCOc1ccc(-c2ncc(CCC3CC3)nc2N2CCC(C(=O)O)CC2)cc1", "note": "[Compound 74, 1-(6-(2-cyclopropylethyl)-3-(4-(2-methoxyethoxy)phenyl)pyrazin-2-yl)piperidine-4-carboxylic acid]", "IC50": "500 to 2000"}
{"compound": "O=C(O)C1CCN(c2nc(COCC(F)(F)F)cnc2-c2ccc(OC3CC3)cc2)CC1", "note": "[Compound 75, 1-(3-(4-cyclopropoxyphenyl)-6-((2,2,2-trifluoroethoxy)methyl)pyrazin-2-yl)piperidine-4-carboxylic acid]", "IC50": "> 2000"}
{"compound": "O=C(O)C1CCN(c2nc(COCC(F)(F)F)cnc2-c2ccc(OC3CC3)c(F)c2)CC1", "note": "[Compound 76, 1-(3-(4-cyclopropoxy-3-fluorophenyl)-6-((2,2,2-trifluoroethoxy)methyl)pyrazin-2-yl)piperidine-4-carboxylic acid]", "IC50": "500 to 2000"}
{"compound": "O=C(O)C1CCN(c2nc(COCC(F)(F)F)cnc2-c2ccc(OCC3CC3)cc2)CC1", "note": "[Compound 77, 1-(3-(4-(cyclopropylmethoxy)phenyl)-6-((2,2,2-trifluoroethoxy)methyl)pyrazin-2-yl)piperidine-4-carboxylic acid]", "IC50": "> 2000"}
{"compound": "O=C(O)C1CCN(c2nc(COCC(F)(F)F)cnc2-c2ccc(OCC3CC3)c(F)c2)CC1", "note": "[Compound 78, 1-(3-(4-(cyclopropylmethoxy)-3-fluorophenyl)-6-((2,2,2-trifluoroethoxy)methyl)pyrazin-2-yl)piperidine-4-carboxylic acid]", "IC50": "> 2000"}
{"compound": "CCCCc1cnc(-c2ccc3c(c2)CC(C)(C)O3)c(N2CCC(C(=O)O)CC2)n1", "note": "[Compound 79, 1-(6-butyl-3-(2,2-dimethyl-2,3-dihydrobenzofuran-5-yl)pyrazin-2-yl)piperidine-4-carboxylic acid]", "IC50": "> 2000"}
{"compound": "CN(C)S(=O)(=O)NC(=O)C1CCN(c2nc(COCC(F)(F)F)cnc2-c2cc(F)c3occc3c2)CC1", "note": "[Compound 80, N-(N,N-dimethylsulfamoyl)-1-(3-(7-fluorobenzofuran-5-yl)-6-((2,2,2-trifluoroethoxy)methyl)pyrazin-2-yl)piperidine-4-carboxamide]", "IC50": "500 to 2000"}
{"compound": "O=c1[nH]c(C2CCN(c3nc(COCC(F)(F)F)cnc3-c3cc(F)c4occc4c3)CC2)ns1", "note": "[Compound 81, 3-(1-(3-(7-fluorobenzofuran-5-yl)-6-((2,2,2-trifluoroethoxy)methyl)pyrazin-2-yl)piperidin-4-yl)-1,2,4-thiadiazol-5(4H)-one]", "IC50": "500 to 2000"}
{"compound": "O=c1[nH]c(C2CCN(c3nc(COCC(F)(F)F)cnc3-c3cc(F)c4occc4c3)CC2)no1", "note": "[Compound 82, 3-(1-(3-(7-fluorobenzofuran-5-yl)-6-((2,2,2-trifluoroethoxy)methyl)pyrazin-2-yl)piperidin-4-yl)-1,2,4-oxadiazol-5(4H)-one]", "IC50": "< 500"}
{"compound": "O=S1NC(C2CCN(c3nc(COCC(F)(F)F)cnc3-c3cc(F)c4occc4c3)CC2)=NO1", "note": "(stereo not drawn) [Compound 83, 4-(1-(3-(7-fluorobenzofuran-5-yl)-6-((2,2,2-trifluoroethoxy)methyl)pyrazin-2-yl)piperidin-4-yl)-3H-1,2,3,5-oxathiadiazole 2-oxide]", "IC50": "500 to 2000"}
{"compound": "CS(=O)(=O)CCc1cnc(-c2cc(F)c3occc3c2)c(N2CCC(C(=O)O)CC2)n1", "note": "[Compound 84, 1-(3-(7-fluorobenzofuran-5-yl)-6-(2-(methylsulfonyl)ethyl)pyrazin-2-yl)piperidine-4-carboxylic acid]", "IC50": "> 2000"}
{"compound": "COCCOc1ccc(-c2ncc(CCS(C)(=O)=O)nc2N2CCC(C(=O)O)CC2)cc1", "note": "[Compound 85, 1-(3-(4-(2-methoxyethoxy)phenyl)-6-(2-(methylsulfonyl)ethyl)pyrazin-2-yl)piperidine-4-carboxylic acid]", "IC50": "> 2000"}
{"compound": "COCCOc1ccc(-c2ncc(CCC(F)(F)F)nc2N2CCC(C(=O)O)CC2)cc1", "note": "[Compound 86, 1-(3-(4-(2-methoxyethoxy)phenyl)-6-(3,3,3-trifluoropropyl)pyrazin-2-yl)piperidine-4-carboxylic acid]", "IC50": "500 to 2000"}
{"compound": "O=C(O)C1CCN(c2nc(CCC(F)(F)F)cnc2-c2cnc3c(c2)CCO3)CC1", "note": "[Compound 87, 1-(3-(2,3-dihydrofuro[2,3-b]pyridin-5-yl)-6-(3,3,3-trifluoropropyl)pyrazin-2-yl)piperidine-4-carboxylic acid]", "IC50": "> 2000"}
{"compound": "O=C(O)CC1CCN(c2nc(CCC(F)(F)F)cnc2-c2cc(F)c3occc3c2)C1", "note": "(stereo not drawn) [Compound 88, 2-(1-(3-(7-fluorobenzofuran-5-yl)-6-(3,3,3-trifluoropropyl)pyrazin-2-yl)pyrrolidin-3-yl)acetic acid]", "IC50": "500 to 2000"}
{"compound": "O=C(O)CCC1CN(c2nc(CCC(F)(F)F)cnc2-c2cc(F)c3occc3c2)C1", "note": "[Compound 89, 3-(1-(3-(7-fluorobenzofuran-5-yl)-6-(3,3,3-trifluoropropyl)pyrazin-2-yl)azetidin-3-yl)propanoic acid]", "IC50": "500 to 2000"}
{"compound": "O=C(O)CC1CN(c2nc(CCC(F)(F)F)cnc2-c2cc(F)c3occc3c2)C1", "note": "[Compound 90, 2-(1-(3-(7-fluorobenzofuran-5-yl)-6-(3,3,3-trifluoropropyl)pyrazin-2-yl)azetidin-3-yl)acetic acid]", "IC50": "500 to 2000"}
{"compound": "O=C(O)C1(O)CCN(c2nc(CCC(F)(F)F)cnc2-c2cc(F)c3occc3c2)CC1", "note": "[Compound 91, 1-(3-(7-fluorobenzofuran-5-yl)-6-(3,3,3-trifluoropropyl)pyrazin-2-yl)-4-hydroxypiperidine-4-carboxylic acid]", "IC50": "< 500"}
{"compound": "COC1(C(=O)O)CCN(c2nc(CCC(F)(F)F)cnc2-c2cc(F)c3occc3c2)CC1", "note": "[Compound 92, 1-(3-(7-fluorobenzofuran-5-yl)-6-(3,3,3-trifluoropropyl)pyrazin-2-yl)-4-methoxypiperidine-4-carboxylic acid]", "IC50": "500 to 2000"}
{"compound": "N#CC1(C(=O)O)CCN(c2nc(CCC(F)(F)F)cnc2-c2cc(F)c3occc3c2)CC1", "note": "[Compound 93, 4-cyano-1-(3-(7-fluorobenzofuran-5-yl)-6-(3,3,3-trifluoropropyl)pyrazin-2-yl)piperidine-4-carboxylic acid]", "IC50": "500 to 2000"}
{"compound": "O=C(O)C1C2CC1CN(c1nc(CCC(F)(F)F)cnc1-c1cc(F)c3occc3c1)C2", "note": "(stereo not drawn) [Compound 94, 3-(3-(7-fluorobenzofuran-5-yl)-6-(3,3,3-trifluoropropyl)pyrazin-2-yl)-3-azabicyclo[3.1.1]heptane-6-carboxylic acid]", "IC50": "500 to 2000"}
{"compound": "O=C(O)C1CC2(CCN(c3nc(CCC(F)(F)F)cnc3-c3cc(F)c4occc4c3)CC2)C1", "note": "[Compound 95, 7-(3-(7-fluorobenzofuran-5-yl)-6-(3,3,3-trifluoropropyl)pyrazin-2-yl)-7-azaspiro[3.5]nonane-2-carboxylic acid]", "IC50": "< 500"}
{"compound": "COCCOc1ccc(-c2ncc(CCC(F)(F)F)nc2N2CCC(C(=O)O)CC2)cn1", "note": "[Compound 97, 1-(3-(6-(2-methoxyethoxy)pyridin-3-yl)-6-(3,3,3-trifluoropropyl)pyrazin-2-yl)piperidine-4-carboxylic acid]", "IC50": "> 2000"}
{"compound": "COCCOc1ncc(-c2ncc(CCC(F)(F)F)nc2N2CCC(C(=O)O)CC2)cc1F", "note": "[Compound 98, 1-(3-(5-fluoro-6-(2-methoxyethoxy)pyridin-3-yl)-6-(3,3,3-trifluoropropyl)pyrazin-2-yl)piperidine-4-carboxylic acid]", "IC50": "> 2000"}
{"compound": "O=C(O)C1CCN(c2nc(CCC(F)(F)F)cnc2-c2ccc(OCCO)cc2)CC1", "note": "[Compound 99, 1-(3-(4-(2-hydroxyethoxy)phenyl)-6-(3,3,3-trifluoropropyl)pyrazin-2-yl)piperidine-4-carboxylic acid]", "IC50": "> 2000"}
{"compound": "COc1ccc(-c2ncc(CCC(F)(F)F)nc2N2CCC(OCC(=O)O)CC2)cc1", "note": "[Compound 100, 2-((1-(3-(4-methoxyphenyl)-6-(3,3,3-trifluoropropyl)pyrazin-2-yl)piperidin-4-yl)oxy)acetic acid]", "IC50": "< 500"}
{"compound": "O=C(O)CC1CC2(C1)CN(c1nc(CCC(F)(F)F)cnc1-c1ccc3occc3c1)C2", "note": "[Compound 101, 2-(2-(3-(benzofuran-5-yl)-6-(3,3,3-trifluoropropyl)pyrazin-2-yl)-2-azaspiro[3.3]heptan-6-yl)acetic acid]", "IC50": "> 2000"}
{"compound": "O=C(O)C1C[C@@H]2CN(c3nc(CCC(F)(F)F)cnc3-c3ccc4occc4c3)C[C@@H]2C1", "note": "(stereo partly drawn) [Compound 102, (3aR,6aS)-2-(3-(benzofuran-5-yl)-6-(3,3,3-trifluoropropyl)pyrazin-2-yl)octahydrocyclopenta[c]pyrrole-5-carboxylic acid]", "IC50": "500 to 2000"}
{"target": "T1, H. sapiens SLC2A9 variant 2 (GLUT9B)", "assay": "GLUT9 functional assay: uric acid uptake in HEK293T cells, allantoin formation by MS/MS as proxy of GLUT9B inhibition", "type": "cell-based", "settings": "60 minute assay; HEK293T cells stably expressing GLUT9B and transiently A. oryzae uricase; uric acid 0.3 mM, 37° C.; read-out: 60 min IC50", "how_it_was_run": "as §1", "units": {"IC50": "nM"}}
{"compound": "O=C(O)C1CCN(c2nc(CCCOC(F)(F)F)cnc2-c2cc(F)c3occc3c2)CC1", "note": "[Compound 96, 1-(3-(7-fluorobenzofuran-5-yl)-6-(3-(trifluoromethoxy)propyl)pyrazin-2-yl)piperidine-4-carboxylic acid]", "IC50": "< 500"}
